In patent US20090060997A1, “PROCESS FOR PRODUCING A PHARMACEUTICAL PREPARATION FOR THERAPEUTIC TREATMENT OF ENDOMETRIOSIS CONTAINING A COMBINATION OF A GESTAGEN AND (6S)-5-METHYLTETRAHYDROFOLATE” (priority 2007, published 2009):

Tests used:
[1] = set-up: species or system women; details: in vivo
From the text: (§1) 128 patients were randomly assigned to the LA group and 124 patients to the DNG group. The efficacy of the therapy was examined, among other ways, with the aid of a pain scale (Visual Analog Scale, VAS) questionnaire that was filled out by the patient.

[2] = tested on: persons affected with endometriosis; details: 2 mg of dienogest daily for 24 weeks; cited from earlier work
[3] = tested on: women with laparoscopically diagnosed endometriosis; test: Clinical study in endometriosis: pain scale (Visual Analog Scale, VAS) questionnaire; assay type: in vivo; details: 6 months; for reduction in pain (VAS) at the end of the treatment compared to the beginning of the study: DNG 2 mg/day orally, LA 3.75 mg s.c. every 4 weeks
From the text: as §1

[4] = tested on: ovulation; details: daily dose; cited from earlier work

Row | Compound | drop in bone density [1] | result of the treatment of endometriosis [2] | statistical analysis of pain reduction versus LA ([3]; DNG 2 mg/day orally vs LA 3.75 mg s.c. every 4 weeks) | reduction in pain (VAS) at the end of the treatment compared to the beginning of the study [3] | ovulation-inhibiting dose [4]
1 | C[C@]12CCC3=C4CCC(=O)C=C4CC[C@H]3[C@@H]1CC[C@@]2(O)CC#N [dienogest, 17α-cyano-methyl-17-β-hydroxy-estra-4,9-dien-3-one] | no reduction in bone density | comparable to that with Danazol or with a GnRH agonist | not inferior to LA | −47.5 mm | 
2 | CC(=O)O[C@]1(C(C)=O)CC[C@H]2[C@@H]3C=C(Cl)C4=CC(=O)CC[C@]4(C)[C@H]3CC[C@@]21C [chlormadinone acetate] |  |  |  |  | 1.7 mg
3 | CCNC(=O)[C@@H]1CCCN1C(=O)[C@H](CCCNC(=N)N)NC(=O)[C@H](CC(C)C)NC(=O)[C@@H](CC(C)C)NC(=O)[C@H](Cc1ccc(O)cc1)NC(=O)[C@H](CO)NC(=O)[C@H](Cc1c[nH]c2ccccc12)NC(=O)[C@H](Cc1c[nH]cn1)NC(=O)[C@@H]1CCC(=O)N1 [LA, leuprorelin acetate] | 4% |  |  | −46.0 mm | 
4 | CC(=O)O[C@]1(C(C)=O)CC[C@H]2[C@@H]3C=C(Cl)C4=CC(=O)[C@@H]5C[C@@H]5[C@]4(C)[C@H]3CC[C@@]21C [cyproterone acetate] |  |  |  |  | 1 mg
